Among the data in patent US9120749B2, “Quinoline derivatives and MELK inhibitors containing the same” (ONCOTHERAPY SCIENCE, INC., priority 2010, dated 2015) are IC50 values, retold here.

One experiment has as its system DU4475 cells. The experiment in a line: Cell-based assay: anti-proliferative activity, Cell Counting Kit-8, 72 hours (DU4475). Conditions: Homo sapiens, DU-4475, 72 h. (Tetrazolium dyes change colour on reduction, which living cells bring about.)
In a further experiment the target is MELK (Homo sapiens, UniProt Q14680). Kind of experiment: Kinase assay: MELK activity, phosphorylation of FITC-labeled histone H3 peptide measured by IMAP fluorescence polarization. Format: biochemical. Conditions: read-out: IC50 (μM) (kinase assay). An outline of the steps:
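Fluorescence polarization was measured 0.5 h (room temperature) after quenching with threefold volume of progressive binding solution. Test compounds from 12.5 mM DMSO stocks were assayed at 1% DMSO.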
Background: Fluorescence polarisation rises when a labelled molecule tumbles more slowly, as on binding a larger partner.

The subject of another experiment is T47D cells. The experiment in a line: Cell-based assay: anti-proliferative activity, Cell Counting Kit-8, 72 hours (T47D). Conditions: Homo sapiens, T47D, 72 h. In short, it runs like this: (§1)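 Proliferation read with Cell Counting Kit-8 after 72 hours of inhibitor treatment, from seeding of 2,000–3,000 cells/well. Lines: T47D, A549, BT-549; HT-1197, lacking MELK by western blot, served as negative control. IC50 derived.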

A further experiment relates to A549 cells. The experiment in a line: Cell-based assay: anti-proliferative activity, Cell Counting Kit-8, 72 hours (A549). Conditions: Homo sapiens, A549, 72 h, 72 hours. An outline of the steps:
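A549 cells were seeded in 96-well plates and exposed to candidate inhibitors for 72 hours. Cell growth was then measured with Cell Counting Kit-8, and IC50 values were calculated from the resulting growth data.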

Another experiment has as its system HT-1197 cells. The experiment in a line: Cell-based assay: anti-proliferative activity, Cell Counting Kit-8, 72 hours (HT-1197, negative control without MELK expression). Conditions: Homo sapiens, HT1197, 72 h, HT1197 cells (negative control), 72 hours. An outline of the steps:
as §1

Chain of MELK (Q14680 whole entry, looked up): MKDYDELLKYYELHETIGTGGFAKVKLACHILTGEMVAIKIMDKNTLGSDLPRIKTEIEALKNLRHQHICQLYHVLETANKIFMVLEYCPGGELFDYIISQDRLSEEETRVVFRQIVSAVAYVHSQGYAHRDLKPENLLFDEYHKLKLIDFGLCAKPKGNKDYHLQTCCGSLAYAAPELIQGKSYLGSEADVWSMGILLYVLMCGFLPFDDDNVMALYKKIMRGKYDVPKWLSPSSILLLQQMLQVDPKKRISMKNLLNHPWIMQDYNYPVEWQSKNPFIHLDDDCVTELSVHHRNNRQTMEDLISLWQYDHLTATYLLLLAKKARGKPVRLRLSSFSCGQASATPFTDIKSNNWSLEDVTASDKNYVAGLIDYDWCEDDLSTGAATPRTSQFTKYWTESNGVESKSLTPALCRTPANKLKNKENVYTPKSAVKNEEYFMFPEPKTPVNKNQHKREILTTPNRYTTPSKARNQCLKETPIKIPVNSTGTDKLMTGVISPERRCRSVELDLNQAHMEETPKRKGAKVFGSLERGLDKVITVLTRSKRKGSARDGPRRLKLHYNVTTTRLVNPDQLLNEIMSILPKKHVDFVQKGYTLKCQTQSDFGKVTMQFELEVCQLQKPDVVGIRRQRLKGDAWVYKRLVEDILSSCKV

A word on the IC50: it is the concentration that inhibits the measured activity by half. For the compound `COc1cc(-c2ccc3ncc(C(=O)C4CC4)c(NC4C[C@H]5CC[C@@H](C4)N5)c3c2)cc(Cl)c1O` (stereo partly drawn) [Example 579, (4-((1R,3r,5S)-8-azabicyclo[3.2.1]octan-3-ylamino)-6-(3-chloro-4-hydroxy-5-methoxyphenyl)quinolin-3-yl)(cyclopropyl)methanone], the IC50 in the experiment with DU4475 cells stood at 0.14 µM; on MELK it was 0.0042 µM; with T47D cells, 0.17 µM; in the experiment on A549 cells, 0.27 µM; in the experiment on HT-1197 cells it was 7.8 µM.

As to `CC(=O)c1cnc2ccc(-c3cc(F)c(O)c(Cl)c3)cc2c1N[C@H]1CC[C@H](N)CC1` [Example 527, 1-(4-((trans-4-aminocyclohexyl)amino)-6-(3-chloro-5-fluoro-4-hydroxyphenyl)quinolin-3-yl)ethanone], the concentration for half-maximal inhibition (IC50) in the experiment on DU4475 cells worked out at 0.02 µM; on MELK, 0.015 µM; in the experiment with T47D cells, 0.034 µM; in the experiment on A549 cells, 0.42 µM; in the experiment with HT-1197 cells, 10 µM.

`CN(C)Cc1ccc(Nc2c(C(=O)C3CC3)cnc3cc(F)c(-c4cc(Cl)c(O)c(Cl)c4)cc23)cc1` [Example 547, cyclopropyl(6-(3,5-dichloro-4-hydroxyphenyl)-4-(4-((dimethylamino)methyl)phenylamino)-7-fluoroquinolin-3-yl)methanone]: the half-maximal inhibitory concentration (IC50) in the experiment with DU4475 cells stood at 0.14 µM; at MELK, 0.02 µM; in the experiment with T47D cells it was 0.41 µM; with A549 cells, 0.13 µM; in the experiment with HT-1197 cells, 1.9 µM.

For the compound `CN(C)CCc1ccc(Nc2c(C(=O)C3CC3)cnc3ccc(-c4cc(F)c(O)c(Cl)c4)cc23)cc1` [Example 615, (6-(3-chloro-5-fluoro-4-hydroxyphenyl)-4-(4-(2-(dimethylamino)ethyl)phenylamino)quinolin-3-yl)(cyclopropyl)methanone], the IC50 amounted to 0.042 µM in the experiment with DU4475 cells; 0.0082 µM at MELK; 0.17 µM in the experiment on T47D cells; 0.086 µM in the experiment with A549 cells; 1.4 µM in the experiment with HT-1197 cells.

Consider `Nc1ccc(Nc2c(C(=O)C3CC3)cnc3ccc(-c4cc(Cl)c(O)c(Cl)c4)cc23)cn1` [Example 590, (4-(6-aminopyridin-3-ylamino)-6-(3,5-dichloro-4-hydroxyphenyl)quinolin-3-yl)(cyclopropyl)methanone], for which the half-maximal inhibitory concentration (IC50) in the experiment on DU4475 cells worked out at 0.19 µM; at MELK it was 0.014 µM; in the experiment with T47D cells, 0.48 µM; in the experiment with A549 cells it was 0.48 µM; with HT-1197 cells, 2.2 µM.

For `NC1CCN(c2ncc(Nc3c(C(=O)C4CC4)cnc4ccc(-c5cc(Cl)c(O)c(Cl)c5)cc34)cn2)CC1` [Example 566, (4-(2-(4-aminopiperidin-1-yl)pyrimidin-5-ylamino)-6-(3,5-dichloro-4-hydroxyphenyl)quinolin-3-yl)(cyclopropyl)methanone], the 50% inhibitory concentration (IC50) with DU4475 cells worked out at 0.13 µM; on MELK, 0.003 µM; in the experiment on T47D cells, 0.11 µM; in the experiment with A549 cells, 0.4 µM; in the experiment on HT-1197 cells, 2.6 µM.

As for `COc1cc(-c2cc3c(Nc4ccc(CN(C)C)cc4)c(C(=O)C4CC4)cnc3cc2F)cc(Cl)c1O` [Example 540, (6-(3-chloro-4-hydroxy-5-methoxyphenyl)-4-(4-((dimethylamino)methyl)phenylamino)-7-fluoroquinolin-3-yl)(cyclopropyl)methanone], the half-inhibitory concentration (IC50) came to 0.35 µM in the experiment with DU4475 cells; 0.064 µM on MELK; 0.89 µM in the experiment on T47D cells; 0.25 µM in the experiment on A549 cells; 3.7 µM in the experiment on HT-1197 cells.

In the case of `COc1cc(-c2ccc3ncc(C(=O)C4CC4)c(Nc4ccc(CCN(C)C)cc4)c3c2)cc(Cl)c1O` [Example 612, (6-(3-chloro-4-hydroxy-5-methoxyphenyl)-4-(4-(2-(dimethylamino)ethyl)phenylamino)quinolin-3-yl)(cyclopropyl)methanone], the IC50 in the experiment on DU4475 cells came to 0.4 µM; at MELK it was 0.0055 µM; in the experiment with T47D cells, 0.84 µM; in the experiment on A549 cells, 0.72 µM; in the experiment on HT-1197 cells, 4.7 µM.

In the case of `COc1cc(-c2ccc3ncc(C(=O)C4CC4)c(Nc4cnn(C5CCNCC5)c4)c3c2)cc(Cl)c1O` [Example 512, (6-(3-chloro-4-hydroxy-5-methoxyphenyl)-4-(1-(piperidin-4-yl)-1H-pyrazol-4-ylamino)quinolin-3-yl)(cyclopropyl)methanone], the half-maximal inhibitory concentration (IC50) in the experiment on DU4475 cells worked out at 0.31 µM; at MELK, 0.0022 µM; with T47D cells, 0.41 µM; with A549 cells, 0.3 µM; in the experiment with HT-1197 cells it was 2.9 µM.

Regarding `O=C(c1cnc2ccc(-c3cc(F)c(O)c(Cl)c3)cc2c1N[C@H]1CC[C@H](CN2CC[C@@H](F)C2)CC1)C1CC1` [Example 570, (6-(3-chloro-5-fluoro-4-hydroxyphenyl)-4-((trans-4-(((R)-3-fluoropyrrolidin-1-yl)methyl)cyclohexyl)amino)quinolin-3-yl)(cyclopropyl)methanone], the 50% inhibitory concentration (IC50) in the experiment with DU4475 cells was 0.089 µM; on MELK, 0.016 µM; in the experiment with T47D cells, 0.14 µM; in the experiment with A549 cells it was 0.13 µM; with HT-1197 cells, 0.16 µM.

For `COc1cc(-c2cc3c(Nc4ccc(N5CCNCC5)nc4)c(C(=O)C4CC4)cnc3cc2F)cc(Cl)c1O` [Example 578, (6-(3-chloro-4-hydroxy-5-methoxyphenyl)-7-fluoro-4-(6-(piperazin-1-yl)pyridin-3-ylamino)quinolin-3-yl)(cyclopropyl)methanone], the IC50 in the experiment with DU4475 cells was 2.8 µM; on MELK it was 0.021 µM; in the experiment on T47D cells it was 3 µM; in the experiment with A549 cells it was 1.9 µM; in the experiment on HT-1197 cells it was 8 µM.

On to `CCCC(=O)c1cnc2ccc(-c3cc(Cl)c(O)c(OC)c3)cc2c1N[C@H]1CC[C@H](CN(C)C)CC1` [Example 607], for which the concentration for half-maximal inhibition (IC50) was found to be 0.24 µM in the experiment on DU4475 cells; 0.0051 µM on MELK; 0.24 µM in the experiment with T47D cells; 0.48 µM with A549 cells; 3.4 µM with HT-1197 cells.

`O=C(c1cnc2ccc(-c3cc(F)c(O)c(Cl)c3)cc2c1Nc1cnn(C2CCNCC2)c1)C1CC1` [Example 520]: the IC50 was 0.042 µM with DU4475 cells; 0.0016 µM at MELK; 0.081 µM with T47D cells; 0.52 µM in the experiment on A549 cells; 10 µM with HT-1197 cells.

With `COc1cc(-c2ccc3ncc(C(=O)C4CC4)c(Nc4ccc(N5CCCC(N)C5)nc4)c3c2)cc(Cl)c1O` (centres unmarked) [Example 554, (4-(6-(3-aminopiperidin-1-yl)pyridin-3-ylamino)-6-(3-chloro-4-hydroxy-5-methoxyphenyl)quinolin-3-yl)(cyclopropyl)methanone], the IC50 in the experiment with DU4475 cells turned out to be 0.025 µM; on MELK, 0.0031 µM; in the experiment on T47D cells it was 0.068 µM; in the experiment on A549 cells, 0.08 µM; in the experiment on HT-1197 cells, 1.9 µM.

On to `NC1CCN(c2ncc(Nc3c(C(=O)C4CC4)cnc4ccc(-c5cc(Cl)c(O)c(Cl)c5)cc34)cn2)C1` (centres unmarked) [Example 574, (4-(2-(3-aminopyrrolidin-1-yl)pyrimidin-5-ylamino)-6-(3,5-dichloro-4-hydroxyphenyl)quinolin-3-yl)(cyclopropyl)methanone], for which the IC50 in the experiment with DU4475 cells is 0.021 µM; at MELK it was 0.0018 µM; in the experiment on T47D cells, 0.031 µM; in the experiment on A549 cells, 0.087 µM; in the experiment with HT-1197 cells it was 1.4 µM.

As to `COc1cc(-c2ccc3ncc(C(=O)C4CC4)c(N[C@H]4CC[C@@H](CN(C)CC#N)CC4)c3c2)cc(Cl)c1O` [Example 518, 2-((((1R,4R)-4-(6-(3-chloro-4-hydroxy-5-methoxyphenyl)-3-(cyclopropanecarbonyl)quinolin-4-ylamino)cyclohexyl)methyl)(methyl)amino)acetonitrile], the half-maximal inhibitory concentration (IC50) with DU4475 cells came to 0.078 µM; at MELK, 0.013 µM; in the experiment on T47D cells, 0.16 µM; with A549 cells it was 0.17 µM; in the experiment with HT-1197 cells, 3.4 µM.

Regarding `NC1CCN(c2ncc(Nc3c(C(=O)C4CC4)cnc4ccc(-c5cc(F)c(O)c(Cl)c5)cc34)cn2)CC1` [Example 567, (4-(2-(4-aminopiperidin-1-yl)pyrimidin-5-ylamino)-6-(3-chloro-5-fluoro-4-hydroxyphenyl)quinolin-3-yl)(cyclopropyl)methanone], the 50% inhibitory concentration (IC50) in the experiment with DU4475 cells amounted to 0.18 µM; at MELK, 0.0083 µM; in the experiment on T47D cells it was 0.076 µM; with A549 cells, 0.34 µM; in the experiment on HT-1197 cells, 1.9 µM.

Turning to `COc1cc(-c2ccc3ncc(C(=O)C4CC4)c(Nc4ccc(N5CCC(N)CC5)nc4)c3c2)cc(Cl)c1O` [Example 550, (4-(6-(4-aminopiperidin-1-yl)pyridin-3-ylamino)-6-(3-chloro-4-hydroxy-5-methoxyphenyl)quinolin-3-yl)(cyclopropyl)methanone], the IC50 with DU4475 cells was 1 µM; on MELK it was 0.0057 µM; in the experiment on T47D cells, 0.1 µM; in the experiment on A549 cells it was 0.58 µM; with HT-1197 cells, 2.7 µM.

Turning to `O=C(c1cnc2ccc(-c3cc(F)c(O)c(Cl)c3)cc2c1Nc1ccc(NC2CCCNC2)nc1)C1CC1` (centres unmarked) [Example 611, (6-(3-chloro-5-fluoro-4-hydroxyphenyl)-4-(6-(piperidin-3-ylamino)pyridin-3-ylamino)quinolin-3-yl)(cyclopropyl)methanone], the half-maximal inhibitory concentration (IC50) turned out to be 0.39 µM in the experiment with DU4475 cells; 0.0023 µM at MELK; 0.13 µM with T47D cells; 0.57 µM with A549 cells; 10 µM in the experiment with HT-1197 cells.
